Test results published in patent US20240165259A1, “BIOORTHOGONAL REACTION SUITABLE FOR CLICK/UNCLICK APPLICATIONS” (DANA-FARBER CANCER INSTITUTE, INC., priority 2021, published 2024).

Target: T1, HaloTag protein (Rhodococcus rhodochrous, UniProt P0A3G2, A155T/A167V/A172T/A224E/C128F/C176G/D78G/E160K/E257K/H272N/K175M/K195N/L47V/L88M/N227D/S58T/T264A/Y273L/Y87F)
T1 construct: made in house; host or cells: E. coli (the text prints transformation into DH5a; BL21(DE3) was also purchased)
Assay: HaloTag protein labeling, in-gel fluorescence (time- and concentration-dependent)
Format: biochemical
Settings: HaloTag protein conjugated to alkyne 21′, 200 μM 22′, room temperature
Method: The viability of the reaction was evaluated both in vitro and in cells (FIG. 14A-FIG. 14B). Purified recombinant HaloTag protein (Los et al., ACS Chem. Biol. 3(6):373-382 (2008); Murrey et al., J. Am. Chem. Soc. 137(35):11461-11475 (2015)) was incubated with HaloTag linker-conjugated difluoropropargyl ether 21′ for 10 minutes at room temperature in pH 7.0 phosphate buffer to provide alkyne-conjugated protein. This protein was then treated with 200 μM TAMRA-N-methylhydroxylamine 22′ and analyzed at various time points by in-gel fluorescence.
Buffer A: pH 7.0, 50 mM NaH2PO4, 20 mM NaCl
A stock solution of HaloTag® protein (15.3 μL, 2.01 mg/mL in buffer A) was added to 29.7 μL of buffer A to prepare a HaloTag® working solution (solution A, 19.7 μM, 45 μL). […]
A solution of alkyne 21′ in DMSO (700 μM) was added to reactions C (0.22 μL) and D (1.10 μL). […] In-gel fluorescence was imaged with a Typhoon™ FLA 9500 (GE) at 532 nm with a photomultiplier tube (PMT) setting of 500 V. The experiment was carried out in triplicate (FIG. 21A-FIG. 21B). […]
A solution of alkyne 21′ in DMSO (700 μM) was added to reactions C (0.22 μL) and D (0.88 μL). […] In-gel fluorescence was imaged with a Typhoon™ FLA 9500 (GE) at 532 nm with a photomultiplier tube (PMT) setting of 500 V. The experiment was carried out in triplicate (FIG. 22A-FIG. 22B).

T1 sequence (P0A3G2 other isoform, or with tags, fused parts or gaps with the stated changes): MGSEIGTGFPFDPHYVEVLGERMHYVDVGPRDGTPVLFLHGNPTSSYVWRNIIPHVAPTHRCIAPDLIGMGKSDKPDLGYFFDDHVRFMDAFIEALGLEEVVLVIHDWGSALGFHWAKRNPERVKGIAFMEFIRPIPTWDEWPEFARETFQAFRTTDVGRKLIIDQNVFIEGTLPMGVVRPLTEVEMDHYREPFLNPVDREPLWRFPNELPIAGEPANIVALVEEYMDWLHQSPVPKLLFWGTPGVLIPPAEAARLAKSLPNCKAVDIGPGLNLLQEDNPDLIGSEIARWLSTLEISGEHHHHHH

With `CN(O)CCOCCNC(=O)c1ccc2c(c1)C1(OC2=O)c2ccc(N(C)C)cc2Oc2cc(N(C)C)ccc21` [compound 13, 3′,6′-bis(dimethylamino)-N-(2-(2-(hydroxy(methyl)amino)ethoxy)ethyl)-3-oxo-3H-spiro[isobenzofuran-1,9′-xanthene]-6-carboxamide] the “time at which fluorophore-labeled protein was observed” value was at most 1 min.
